How the values were obtained:
Assay type in all cases: cell-based, Plasmodium falciparum
[1] = tested on: P. falciparum D6; assay: Malaria SYBR Green Fluorescence Assay, D6 strain; conditions: for D6: SYBR Green Assay
[2] = tested on: P. falciparum C235; assay: Malaria SYBR Green Fluorescence Assay, C235 strain; conditions: for C235: SYBR Green Assay
[3] = tested on: P. falciparum W2; assay: Malaria SYBR Green Fluorescence Assay, W2 strain; conditions: for W2: SYBR Green Assay

Row | Molecule | D6 (SYBR Green Assay IC50) [1] [µg/mL] | C235 (SYBR Green Assay IC50) [2] [µg/mL] | W2 (SYBR Green Assay IC50) [3] [µg/mL] | D6 [1] [ng/mL] | C235 [2] [ng/mL] | W2 [3] [ng/mL]
1 | CCN1CCC(CNc2nc(-c3ccccc3[N+](=O)[O-])nc(C(Cl)(Cl)Cl)n2)CC1 [Cmpd 551] | 0.07027 | 0.05653 | 0.0356 |  |  | 
2 | CCN(CC)CCNc1nc(-c2ccccc2OC)nc(C(Cl)(Cl)Cl)n1 [Cmpd 107] |  |  |  | 212 | 158 | 95
3 | ClC(Cl)(Cl)c1ccc(cc1)c2nc(NCc3ccncc3)nc(n2)C(Cl)(Cl)Cl [Compound 652] | 0.385 | 0.876 | 0.301 |  |  | 
4 | CN(C)CCCNc1nc(-c2ccc(F)cc2)nc(C(Cl)(Cl)Cl)n1 [Cmpd 448] | 0.035 | 0.04 | 0.007 |  |  | 
5 | COc1cc(OC)cc(-c2nc(NCC3CCN(C)CC3)nc(C(Cl)(Cl)Cl)n2)c1 [Cmpd 521] | 0.045 | 0.023 | 0.014 |  |  | 
6 | COc1ccc(-c2nc(N3CCCN(C)CC3)nc(C(Cl)(Cl)Cl)n2)cc1 [Cmpd 111] |  |  |  | 191 | 232 | 103
7 | OCCN1CCN(c2nc(-c3ccc(-c4ccccc4)cc3)nc(C(Cl)(Cl)Cl)n2)CC1 [Cmpd 308] |  |  |  | 52 | 126 | 24
8 | COc1cc(OC)cc(-c2nc(N3CCC(N)CC3)nc(C(Cl)(Cl)Cl)n2)c1 [Compound 635, COC1═CC(═CC(OC)═C1)C1═NC(═NC(═N1)C(Cl)(Cl)Cl)N1CCC(N)CC1] | 0.259 | 0.218 | 0.135 |  |  | 
9 | COc1ccccc1Nc1nc(NCCC2CCCN2C)nc(C(Cl)(Cl)Cl)n1 (stereo not drawn) [Cmpd 63] |  |  |  | 603 | 540 | 794
10 | CN1CCC(CNc2nc(-c3ccccc3)nc(C(Cl)(Cl)Cl)n2)CC1 [Cmpd 512] | 0.103 | 0.057 | 0.03 |  |  | 
11 | CCN(CC)CCNc1nc(Nc2ccc(OC)nc2)nc(C(Cl)(Cl)Cl)n1 [Cmpd 342] |  |  |  | 335 | 398 | 149
12 | CN1CCN(c2nc(-c3ccc(N4CCCC4)cc3)nc(C(Cl)(Cl)Cl)n2)CC1 [Cmpd 427] | 0.676 | 0.877 | 0.459 |  |  | 
13 | COc1ccc(-c2nc(NCC3(N)CCOCC3)nc(C(Cl)(Cl)Cl)n2)cc1OC [Cmpd 319] |  |  |  | 16 | 34 | 10
14 | COc1ncccc1Nc1nc(N2CCCNCC2)nc(C(Cl)(Cl)Cl)n1 [Cmpd 378] | 0.05 | 0.098 | 0.059 |  |  | 
15 | O=[N+]([O-])c1ccccc1-c1nc(N2CCCN(CCO)CC2)nc(C(Cl)(Cl)Cl)n1 [Cmpd 552] | 0.1704 | 0.1756 | 0.07605 |  |  | 
16 | CCN(CC)CCNc1nc(-c2ccc(Cl)cc2)nc(C(Cl)(Cl)Cl)n1 [Cmpd 286] |  |  |  | 5 | 10 | 2
17 | COc1ccc(-c2nc(NCCCN(C)C)nc(C(Cl)(Cl)Cl)n2)cc1OC [Cmpd 450] | 0.239 | 0.252 | 0.091 |  |  | 
18 | CS(=O)(=O)c1ccc(-c2nc(NCCc3cccnc3)nc(C(Cl)(Cl)Cl)n2)cc1 [Cmpd 179] |  |  |  | 471 | 680 | 201

Row | Molecule | D6 (SYBR Green Assay IC50) [1] [µg/mL] | C235 (SYBR Green Assay IC50) [2] [µg/mL] | W2 (SYBR Green Assay IC50) [3] [µg/mL] | D6 [1] [ng/mL] | C235 [2] [ng/mL] | W2 [3] [ng/mL]
19 | Clc1cc(Cl)cc(-c2nc(N3CCCNCC3)nc(C(Cl)(Cl)Cl)n2)c1 [Cmpd 204] |  |  |  | 231 | 214 | 78
20 | CC(C)(C)c1ccc(-c2nc(NCCN3CCCC3)nc(C(Cl)(Cl)Cl)n2)cc1 [Cmpd 246] |  |  |  | 48 | 35 | 59
21 | CN(Cc1ccccc1-c1cccnc1)c1nc(-c2ccc(S(C)(=O)=O)cc2)nc(C(Cl)(Cl)Cl)n1 [Cmpd 129] |  |  |  | 170 | 233 | 102
22 | ClC(Cl)(Cl)c1nc(NCCc2ccncc2)nc(-c2ccc3ccccc3c2)n1 [Cmpd 230] |  |  |  | 246 | 212 | 59
23 | CN1CCN(c2nc(-c3ccc(S(C)(=O)=O)cc3)nc(C(Cl)(Cl)Cl)n2)CC1 [Cmpd 54] |  |  |  | 432 | 632 | 356
24 | CSc1ccc(-c2nc(NCC3CCN(C(C)C)CC3)nc(C(Cl)(Cl)Cl)n2)cc1 [Cmpd 490] | 0.091 | 0.067 | 0.049 |  |  | 
25 | Cc1ccc(-c2nc(NCCc3ccncc3)nc(C(Cl)(Cl)Cl)n2)cc1 [Cmpd 145] |  |  |  | 168 | 344 | 94
26 | COc1cc(OC)cc(-c2nc(NCC(C)(C)N)nc(C(Cl)(Cl)Cl)n2)c1 [Cmpd 481] | 0.035 | 0.017 | 0.012 |  |  | 
27 | Clc1cccc(-c2nc(NCCN3CCCC3)nc(C(Cl)(Cl)Cl)n2)c1 [Cmpd 334] |  |  |  | 9 | 15 | 2
28 | CN1CCCN(c2nc(-c3ccc(F)cc3)nc(C(Cl)(Cl)Cl)n2)CC1 [Cmpd 384] | 0.025 | 0.059 | 0.029 |  |  | 
29 | CSc1ccc(-c2nc(NCc3cccnc3)nc(C(Cl)(Cl)Cl)n2)cc1 [Cmpd 160] |  |  |  | 789 | 896 | 238
30 | COc1ccc(Nc2nc(NCCC3CCCN3C)nc(C(Cl)(Cl)Cl)n2)cn1 (stereo not drawn) [Cmpd 341] |  |  |  | 7 | 10 | 5
31 | Clc1cccc(-c2nc(NCCCN3CCCC3)nc(C(Cl)(Cl)Cl)n2)c1 [Cmpd 433] | 0.076 | 0.145 | 0.044 |  |  | 
32 | COc1cc(OC)cc(-c2nc(NCC3(N)CCOCC3)nc(C(Cl)(Cl)Cl)n2)c1 [Cmpd 529] | 0.059 | 0.055 | 0.055 |  |  | 
33 | FC(F)(F)c1cccc(-c2nc(NCCc3cnccn3)nc(C(Cl)(Cl)Cl)n2)c1 [Cmpd 539] | 0.325 | 0.27 | 0.098 |  |  | 
34 | Cc1ccc(-c2ccccc2-c2nc(NCCCN(C)C)nc(C(Cl)(Cl)Cl)n2)cc1 [Cmpd 446] | 0.482 | 0.535 | 0.223 |  |  | 
35 | NC1CCN(c2nc(-c3cccc(Cl)c3)nc(C(Cl)(Cl)Cl)n2)CC1 [Compound 633, NC1CCN(CC1)C1═NC(═NC(═N1)C(Cl)(Cl)Cl)C1═CC(Cl)═CC═C1] | 0.01 | 0.01 | 0.008 |  |  | 
